The nature of one series: in vivo. The following applies: dog, plasma.
Series [1] in a line: dog dialysis model: hemodialysis with casein hydrolysate-enriched dialysate, plasma amino acid content.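 Further: anesthetized dogs on 4 h hemodialysis with bicarbonate dialysate, one enriched with vitamin-free casein acid hydrolysate, control animal on standard dialysis, plasma amino acids measured at 0 and 4 h.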 The following applies: casein group, over the course of dialysis.
Protocol: (§1) Supplementation with casein hydrolysate was evaluated in a dog dialysis model. Two dogs were dialyzed: a control animal underwent four hours of standard hemodialysis. The second animal was dialyzed with dialysate enriched with vitamin-free casein acid hydrolysate under otherwise identical conditions. The dogs were anesthetized and ventilated; venous access for dialysis was achieved via two peripheral venous lines, right femoral and left external jugular. A routine, bicarbonate-based dialysis solution, Centrisol™, was used with both animals and diluted with filtered water by the hemodialysis machine to the appropriate concentration. […] The animals were dialyzed for four hours with a blood flow rate of 300 ml/min and a dialysate flow rate of 500 ml/min. Plasma and dialysate samples were from both animals at t=0 and t=4 hours were analyzed for amino acid content. Additional samples were taken from the serum post-filter and from the dialysate immediately pre-filter.

The record followed here is patent publication US20050148647A1, “Hemodialysis solutions and uses thereof” (priority 2003, published 2005).

Molecules are shown by their SMILES.

Protocol for in vivo: as §1

In “in vivo”, `C[C@@H](O)[C@H](N)C(=O)O` [threonine] yielded a concentration at 0 h of 108 µM and a concentration at 4 h of 128 µM.

In “in vivo”, `N[C@@H](CS)C(=O)O` [cysteine] yielded a concentration at 0 h of 8 µM and a concentration at 4 h of 12 µM.

Regarding `N[C@@H](Cc1c[nH]cn1)C(=O)O` [histidine], in “in vivo”, the concentration at 0 h amounted to 68 µM and the concentration at 4 h is 88 µM.

`N[C@@H](CO)C(=O)O` [serine]: in “in vivo”, the concentration at 0 h turned out to be 154 µM and the concentration at 4 h worked out at 154 µM. Besides, the “direction of change of plasma concentration of the amino acid (in words)” value in series [1] is reported as “remained the same concentration”.

Regarding `CC[C@H](C)[C@H](N)C(=O)O` [isoleucine], in the series “in vivo”, the concentration at 0 h came to 46 µM and the concentration at 4 h turned out to be 138 µM.

As for `N[C@@H](Cc1c[nH]c2ccccc12)C(=O)O` [tryptophan], in the series “in vivo”, the concentration at 0 h stood at 52 µM and the concentration at 4 h came out at 52 µM.

For the compound `O=C(O)[C@@H]1CCCN1` [proline], in “in vivo”, the concentration at 0 h stood at 336 µM and the concentration at 4 h is 428 µM.

Consider `N[C@@H](CC(=O)O)C(=O)O` [aspartate], for which, in “in vivo”, the concentration at 0 h came out at 2 µM and the concentration at 4 h was found to be 12 µM.

In the series “in vivo”, `N=C(N)NCCC[C@H](N)C(=O)O` [arginine] had a concentration at 0 h of 132 µM and a concentration at 4 h of 148 µM.

For `NCCCC[C@H](N)C(=O)O` [lysine], in the series “in vivo”, the concentration at 0 h was 98 µM and the concentration at 4 h was 198 µM.

In “in vivo”, `CC(C)[C@H](N)C(=O)O` [valine] returned a concentration at 0 h of 118 µM and a concentration at 4 h of 242 µM.

`N[C@@H](Cc1ccc(O)cc1)C(=O)O` [tyrosine]: in “in vivo”, the concentration at 0 h came out at 28 µM and the concentration at 4 h turned out to be 48 µM.

In the series “in vivo”, `NCC(=O)O` [glycine] returned a concentration at 0 h of 306 µM and a concentration at 4 h of 260 µM. Further, the “direction of change of plasma concentration of the amino acid (in words)” value in series [1] is “decreased”.

`CC(C)C[C@H](N)C(=O)O` [leucine]: in the series “in vivo”, the concentration at 0 h turned out to be 126 µM and the concentration at 4 h turned out to be 290 µM.

As to `C[C@H](N)C(=O)O` [alanine], in the series “in vivo”, the concentration at 0 h amounted to 658 µM and the concentration at 4 h is 712 µM.

Consider `CSCC[C@H](N)C(=O)O` [methionine], for which, in “in vivo”, the concentration at 0 h is 44 µM and the concentration at 4 h came to 86 µM.

In the series “in vivo”, `N[C@@H](Cc1ccccc1)C(=O)O` [phenylalanine] returned a concentration at 0 h of 34 µM and a concentration at 4 h of 82 µM.
